Results: publication PMC6600671, “Design and Synthesis of Indoleamine 2,3-Dioxygenase 1 Inhibitors and Evaluation of Their Use as Anti-Tumor Agents” (Molecules, 2019)

Experiments:
rhIDO1 = rhIDO1 (Homo sapiens, UniProt P14902); experiment: Enzyme-based IDO1 activity assay (kynurenine absorbance at 492 nm); assay type: biochemical; conditions: for inhibition at 50 µM: shown when calculated IC50 >50 μM, read-out: IDO inhibition rate (%) at 50 μM; for IC50: rhIDO1 0.05 μM, 37 °C, 45 min, read-out: IDO IC50
Description: (§1) The compounds on IDO1 or TDO activity were determined as follows: A standard reaction mixture (100 μL) containing 100 mM potassium phosphate buffer (pH 6.5), 40 mM ascorbic acid (neutralized with NaOH), 200 μg/mL catalase, 20 μM methylene blue and 0.05 μM rhIDO1 or rhTDO was added to the solution containing the substrate L-tryptophan and the test sample at a determined concentration. […] The yellow pigment derived from kynurenine was measured at 492 nm using a SYNERGY-H1 microplate reader (Biotek Instruments, Inc., Winooski, VT, USA). IC50 was analyzed using the GraphPad Prism 8.0 software (GraphPad Software, San Diego, CA, USA).

rhTDO = rhTDO (Homo sapiens, UniProt P48775); experiment: Enzyme-based TDO activity assay (kynurenine absorbance at 492 nm); assay type: biochemical; conditions: for inhibition at 50 µM: shown when calculated IC50 >50 μM, read-out: TDO inhibition rate (%) at 50 μM; for inhibition at 50 µM / TDO IC50 or %: at 50 μM; for TDO IC50 or %: dash symbol
Description: as §1

rhIDO1, sequence (P14902 whole entry): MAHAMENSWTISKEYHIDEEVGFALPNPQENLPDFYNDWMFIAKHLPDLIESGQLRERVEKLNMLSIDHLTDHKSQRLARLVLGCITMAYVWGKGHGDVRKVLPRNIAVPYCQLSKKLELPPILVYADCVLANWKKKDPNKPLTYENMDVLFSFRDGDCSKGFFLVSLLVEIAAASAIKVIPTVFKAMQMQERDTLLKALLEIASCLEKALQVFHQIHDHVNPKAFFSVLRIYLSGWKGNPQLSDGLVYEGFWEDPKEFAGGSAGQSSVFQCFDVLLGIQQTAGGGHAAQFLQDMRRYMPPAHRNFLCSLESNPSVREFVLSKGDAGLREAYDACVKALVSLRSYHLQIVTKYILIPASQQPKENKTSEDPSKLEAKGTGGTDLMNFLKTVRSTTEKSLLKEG
rhTDO, sequence (P48775 whole entry): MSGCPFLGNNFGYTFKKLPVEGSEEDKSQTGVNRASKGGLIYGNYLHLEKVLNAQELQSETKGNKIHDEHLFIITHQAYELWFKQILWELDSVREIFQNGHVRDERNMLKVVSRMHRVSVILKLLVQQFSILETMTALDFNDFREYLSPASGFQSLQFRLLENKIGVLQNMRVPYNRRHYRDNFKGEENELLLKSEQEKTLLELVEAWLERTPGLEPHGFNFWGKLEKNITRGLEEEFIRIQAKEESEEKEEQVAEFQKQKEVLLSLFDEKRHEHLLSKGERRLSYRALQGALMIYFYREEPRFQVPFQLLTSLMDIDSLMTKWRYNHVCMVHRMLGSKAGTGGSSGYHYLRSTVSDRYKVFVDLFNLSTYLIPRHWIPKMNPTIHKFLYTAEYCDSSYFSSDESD

SMILES | inhibition at 50 µM (rhIDO1; at 50 μM) | inhibition at 50 µM (rhTDO) | further results
COc1ccc(-c2c[nH]cn2)c(/C=N/O)c1 [DX-03-07, (E) 2-(1H-imidazol-4-yl)-5-methoxybenzaldehyde Oxime] | 33.5% | 15.1% | 
ONCc1c[nH]c2ccccc12 [DX-01-14, N-((1H-indol-3-yl)methyl)hydroxylamine] |  | 38.2% | IDO1 inhibition, in words (rhIDO1): moderate; IC50 (rhIDO1): 11.1 µM
O=C(O)c1cc2ccccc2[nH]1 [DX-01-01] | 9.7% | 8.9% | 
O=C1CC(c2c(/C=N/O)[nH]c3ccc(F)cc23)C(=O)N1 (racemic) [DX-02-04, (R/S) (E)-3-(2,5-dioxopyrrolidin-3-yl)-5-fluoro-1H-indole-2-carbaldehyde oxime] | 40.2% | 14.5% | 
O=C1CC(Cc2c[nH]c3ccccc23)C(=O)N1 (racemic) [DX-02-02, (R/S) 3-((1H-indol-3-yl)methyl)pyrrolidine-2,5-dione] | 7.2% | 2.3% | 
N#CCc1nc2ccccc2[nH]1 [DX-01-22] | 13.2% | 4.5% | 
O=C1CC(c2c(CNO)[nH]c3ccc(F)cc23)C(=O)N1 (racemic) [DX-02-05, (R/S) 3-(5-fluoro-2-((hydroxyamino)methyl)-1H-indol-3-yl)pyrrolidine-2,5-dione] | 12.5% | 16.3% | 
NS(=O)(=O)NCCCOc1ccccc1-c1c[nH]cn1 [DX-03-11, N-(3-(2-(1H-imidazol-5-yl)phenoxy)propyl)-aminesulfonamide] |  | 38.2% | IC50 (rhIDO1): 2.4 µM; TDO inhibition, in words (rhTDO): marginal
O/N=C/c1cc(-c2ccccc2C(F)(F)F)ccc1-c1c[nH]cn1 [DX-03-08, (E) 4-(1H-imidazol-4-yl)-2′-(trifluoromethyl)-[1,1′-biphenyl]-3-carbaldehyde Oxime] | 15.6% | 11.1% | 
N#CCc1c[nH]c2ccccc12 [DX-01-10] | 2.1% | 8.9% | 
ONCc1cc2ccccc2[nH]1 [DX-01-17, N-((1H-indol-2-yl)methyl)hydroxylamine] |  | 42.2% | IDO1 inhibition, in words (rhIDO1): moderate; IC50 (rhIDO1): 17.7 µM
COc1ccc2[nH]cc(CCNC(C)=O)c2c1 [DX-01-11] |  | 3.8% | IDO IC50 or % (rhIDO1; at 50 μM, dash symbol): -
O=[N+]([O-])c1c[nH]c2ccccc12 [DX-01-08] | 10.9% | 3.2% | 
Cc1ccccc1-c1ccc2[nH]cc(CNO)c2c1 [DX-01-15, N-((5-(o-tolyl)-1H-indol-3-yl)methyl)hydroxylamine] |  | 35.4% | IDO1 inhibition, in words (rhIDO1): moderate; IC50 (rhIDO1): 21.3 µM
O=c1[nH]c2ccccc2o1 [DX-01-18] | 5.4% |  | TDO IC50 or % (rhTDO; Table 1): -
O=C1C/C(=C\c2c[nH]c3ccccc23)C(=O)N1 [DX-02-01, (E)-3-((1H-indol-3-yl)methylene)pyrrolidine-2,5-dione] | 6.3% |  | TDO IC50 or % (rhTDO; Table 2): -
O/N=C/c1c(F)cccc1-c1c[nH]cn1 [DX-03-06, (E) 2-fluoro-6-(1H-imidazol-4-yl)benzaldehyde Oxime] | 25.6% | 12.9% | 
O/N=C/c1cc(Cl)ccc1-c1c[nH]cn1 [DX-03-05, (E) 5-chloro-2-(1H-imidazol-4-yl)benzaldehyde Oxime] | 31.3% | 12.1% | 
O=C(NO)c1c[nH]c2ccccc12 [DX-01-12] | 47.1% | 33.9% | 
N#CCc1nc2ccccc2o1 [DX-01-20] | 15.7% | 3.8% | 
N#Cc1c[nH]c2ccccc12 [DX-01-09] | 2.6% | 7.8% | 
O/N=C/c1ccccc1-c1c[nH]cn1 [DX-03-02, (E) 2-(1H-imidazol-4-yl)benzaldehyde Oxime] | 24.2% | 13.9% | 
